Assays:
male albino mice (NMRI) = assay: Formalin test in mice, second (late) phase; format: in vivo; conditions: second (late) phase of formalin test
Method: The studies for determination of the antinociceptive action of the compounds according to the invention were carried out in the formalin test in male albino mice (NMRI, 25-35 g, Iffa Credo, Belgium).
The compounds according to the invention were investigated in the second phase of the formalin test to obtain information on the actions of the compounds according to the invention on chronic/inflammatory pain.
By a single subcutaneous formalin injection (20 μl, 1% aqueous solution) into the dorsal side of the right hind paw of freely mobile test animals, a nociceptive reaction was induced, which manifests itself in significant licking and biting of the paw affected.
For the investigation period in the second (late) phase of the formalin test, the nociceptive behavior was recorded continuously by observing the animals. […] After injection of substances which have an antinociceptive action in the formalin test, the modes of behaviour described for the animals are reduced, and possibly even eliminated. […] The behaviour of the rats after administration of the substance was compared with a control group (10 mice per substance dose).
On the basis of the quantification of the pain properties, the action of the substance in the formalin test was determined as a change from the control in per cent. The ED50 calculations were made by means of regression analysis. […]

[1] = target: T1, glycine binding site of the NMDA receptor channel (Rattus norvegicus, UniProt P35439); assay: Receptor binding test, displacement of (3H)-MDL 105.519 on rat cerebral membrane homogenates; conditions: rat cortex and hippocampus membranes, 1 nmol/l (3H)-MDL 105.519; Ki from IC50 by Cheng-Prusoff
T1 construct: from tissue; host or cells: rat brain cortex and hippocampus membrane homogenate (male Wistar rats, Charles River)
Method: Studies for determination of the affinity of the substituted pyrrolidine-2,3,4-trione 3-oxime derivatives of the general formula I according to the invention for the glycine binding site of the NMDA receptor channel were carried out on cerebral membrane homogenates (homogenate of the cortex and hippocampus area from the brain of male rats, Wistar strain, Charles River, WIGA GmbH, Sulzbach, Germany) by the method of Baron B. M. et al, J. Pharmacol. Exp. Ther., vol. 279, pp.62-68 (1996). […]
In the binding test, 50 mmol/l TRIS-acetate buffer pH 7.0 was employed as the buffer and 1 nmol/l (^3H)-MDL 105.519 (Baron B. M. et al, J. Pharmacol. Exp. Ther., vol. 279, pp. 62-68 (1996)) was employed as the radioactive ligand. The proportion of non-specific binding was determined in the presence of 1 mmol/l glycine.
In further batches, the compounds according to the invention were added in concentration series and the displacement of the radioactive ligand from its specific binding to the glycine binding site of the NMDA receptor channel was determined. […]

male NMRI mice = assay: Phenylquinone-induced writhing test in the mouse; format: in vivo
Method: The study of the analgesic activity was also carried out in the phenylquinone-induced writhing in the mouse (modified by I. C. Hendershot et al, (1959) J. Pharmacol. Exp. Ther., vol. 125, pp. 237-240). Male NMRI mice weighing 25 to 30 g (Iffa, Credo, Belgium, were used for this. Groups of 10 animals per substance dose received 0.3 ml/mouse of a 0.02% aqueous solution of phenylquinone (phenylbenzoquinone, Sigma, Deisenhofen; preparation of the solution with the addition of 5% ethanol and storage in a water bath at 45° C.) administered intraperitoneally 10 minutes after intravenous administration of the particular compound. The animals were placed individually in observation cages. The number of pain-induced stretching movements (so-called writhing reactions=straightening of the body with stretching of the hind extremities) was counted by means of a push-button counter for 5 to 20 minutes after the administration of phenylquinone. Animals which received only physiological saline solution were also run as a control. All the substances were tested in the standard dosage of 10 mg/kg of body weight of the mouse. The percentage inhibition (% inhibition) of the writhing reaction by a substance was calculated according to the following equation: [formula]
For some of the compounds according to the invention the ED50 values with the 95% confidence range of the writhing reaction were calculated by means of regression analysis (evaluation program from Martens EDV Service, Eckental) from the dose-dependent decrease in the writhing reactions compared with phenylquinone control groups investigated in parallel.
The study of the analgesic activity was carried out in the phenylquinone-induced writhing in mice as described above.

melting point [°C] | Ki [1] [nM] | SMILES | % change from the control at 10 mg/kg (male albino mice (NMRI)) [%] | % inhibition of the writhing reaction at 10 mg/kg intravenously (male NMRI mice) [%]
174 | – | COC(=C1NC(=O)C(=NO)C1=O)c1ccccc1 [Example 1, 5-(Methoxyphenylmethylene)-pyrrolidine-2,3,4-trione 3-oxime] | – | –
158 | 430 | O=C1NC(=C(Br)c2ccccc2)C(=O)C1=NO [Example 2, 5-(Bromophenylmethylene)-pyrrolidine-2,3,4-trione 3-oxime] | 36.3 | –
176 | – | O=C1NC(=Cc2ccccc2Cl)C(=O)C1=NO [Example 4, 5-(2-Chlorobenzylidene)-pyrrolidine-2,3,4-trione 3-oxime] | – | 55
190 | – | O=C1NC(=Cc2ccc(Cl)cc2)C(=O)C1=NO [Example 5, 5-(4-Chlorobenzylidene)-pyrrolidine-2,3,4-trione 3-oxime] | – | 50
– | – | O=C1NC(=Cc2cccc(Cl)c2Cl)C(=O)C1=NO [Example 6, 5-(2,3-Dichlorobenzylidene)-pyrrolidine-2,3,4-trione 3-oxime] | – | 52
180 | – | O=C1NC(=Cc2ccc(Cl)cc2Cl)C(=O)C1=NO [Example 7, 5-(2,4-Dichlorobenzylidene)-pyrrolidine-2,3,4-trione 3-oxime] | – | 46
232 | – | O=C1NC(=Cc2c(Cl)cccc2Cl)C(=O)C1=NO [Example 8, 5-(2,6-Dichlorobenzylidene)-pyrrolidine-2,3,4-trione 3-oxime] | – | 51
185 | – | O=C1NC(=Cc2cccc(Cl)c2)C(=O)C1=NO [Example 9, 5-(3-Chlorobenzylidene)-pyrrolidine-2,3,4-trione 3-oxime] | – | 81
